For data set [1], the system named is Capan-1 pancreatic cancer cell line. Nature of the data set: Cell viability assay (Capan-1). The note with it: Homo sapiens, 240 h; Capan-1 cells, treated 10 days. It is filed as cell-based. The method, then: 3. Cell Viability Assay (Capan-1)
Cell viability assay was performed by using Capan-1 cell line to measure cytotoxicity of compounds in the present invention. Capan-1 pancreatic cancer cell line was seeded into 96-well plates at 37° C. under 5% CO2 atmosphere using IMDM (Sigma) containing 10% FBS (Hyclone). After 24 hr incubation, cells were treated with the invented compounds at various concentrations for 10 days. After 7-day incubation, the medium was changed. 10 days later, A fluorescence reagent was used to determine the IC50 values.

In data set [2] the test system is MDA-MB-436 breast cancer cell line. Description: Cell viability assay (MDA-MB-436). The note with it: Homo sapiens, 144 h; MDA-MB-436 cells, treated 6 days. Format: cell-based. In short, it runs like this:
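MDA-MB-436 breast cancer cells in DMEM/F12 with 10% FBS, treated 24 h after seeding with graded compound concentrations for 6 days at 37 °C, 5% CO2, medium changed every 3 days. Viability read with a fluorescence reagent; IC50 derived.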

Another data set in a line: Mouse pharmacokinetics. Format: in vivo. More on the design: concentration or dose not given beside the values. The following applies: Balb/c male mice, blood samples 15 to 1140 min, LC-MS/MS. On the procedure: To evaluate the pharmacokinetics test, the invented compounds (from I-25 to I-1171) were determined as follows. Blood samples are collected at 15, 30, 60, 120, 240, 480, 1140 min. Quantification is by using a LC-MS/MS method specific to the selected compound. Pharmacokinetics parameters are calculated using WinNonLinnon compartmental analysis software.

The test system of data set [3] is LNCaP prostate cancer cell line. Nature of the data set: Cell viability assay (LNCaP). It is filed as cell-based. The note with it: Homo sapiens, 264 h; LNCaP cells, treated 11 days. On the procedure:
4. Cell Viability Assay (LNCaP)
Cell viability assay was performed by using LNCaP cell line to measure cytotoxicity of compounds in the present invention. LNCaP prostate cancer cell line was seeded into 96-well plates at 37° C. under 5% CO2 atmosphere using RPMI-1640 (Hyclone) containing 10% FBS (Hyclone). After 24 hr incubation, cells were treated with the invented compounds at various concentrations for 11 days. The medium was changed every 3 to 4 day. 11 days later, A fluorescence reagent was used to determine the IC50 values.

For data set [4], the system named is Capan-1 Human pancreatic cancer cells. Nature of the data set: In vivo antitumoral efficacy, Capan-1 subcutaneous xenograft. The following applies: Capan-1 xenograft in Balb/c nude mice. The method, then:
To evaluate the in vivo antitumoral efficacy, the invented compounds (I-80˜171) was determined as a result to follows.
Capan-1 Human pancreatic cancer cells were established as subcutaneous xenografts by injection of 8×10^6 cells into the flanks of adult female Balb/c nude mice. Mice with established tumors (160-250 mm^3) were selected for study (n=6/treatment group). The test compounds were formulated in DW and administered orally (po) at a dose of 30˜200 mg/kg. The vehicle alone was administered to control groups. Animals were dosed 5 days per week (Monday through Friday) for 3 consecutive weeks.
Animals were weighed and tumor size was determined twice weekly by caliper measurements, and tumor volumes were calculated (volume=[…] (mm^3), where l and w refer to the larger and smaller dimensions collected at each measurement). The mean tumor volumes of each group were calculated. The change in mean treated tumor volume was divided by the change in mean control tumor volume, multiplied by 100 and subtracted from 100% to give the tumor growth inhibition for each group.

Where [5] appears, read: 100 mg/kg po qd x 5, 3 consecutive weeks.
The mark [6] stands for this setting: 200 mg/kg po qd x 5, 3 consecutive weeks.

SMILES strings stand for the structures.

Consider `O=C(c1cc(Cc2n[nH]c(=O)c3ccccc23)ccc1F)N1CC(NC2CCC2)C1` [Compound I-25, 4-(3-(3-(cyclobutylamino)azetidine-1-carbonyl)-4-fluorobenzyl)phthalazin-1(2H)-one], for which the figures for the concentration for half-maximal inhibition (IC50) in data set [1] and in data set [2] were 300 to 1000 nM and 5 to 50 nM, respectively. The exposure (AUC) in “Mouse pharmacokinetics” was 831 ng·h/mL.
Regarding `O=C(c1cc(Cc2n[nH]c(=O)c3ccccc23)ccc1F)N1CC(CNC2CC2)C1` [Compound I-143, 4-(3-(3-((cyclopropylamino)methyl)azetidine-1-carbonyl)-4-fluorobenzyl)phthalazin-1(2H)-one], the concentration for half-maximal inhibition (IC50) in data set [1] is 50 to 300 nM; in data set [2] it was no more than 5 nM. The exposure (AUC) in “Mouse pharmacokinetics” is 673 ng·h/mL.
For `O=C(c1cc(Cc2n[nH]c(=O)c3ccccc23)ccc1F)N1CC[C@@H](Nc2ccc(C(F)(F)F)cn2)C1` [Compound I-131, (R)-4-(4-fluoro-3-(3-((5-(trifluoromethyl)pyridin-2-yl)amino)pyrrolidine-1-carbonyl)benzyl)phthalazin-1(2H)-one], the IC50 in data set [2] is 50 to 300 nM; in data set [3], 5 to 50 nM.
In data set [2], `O=C(c1cc(Cc2n[nH]c(=O)c3ccccc23)ccc1F)N1CC[C@@H](NC2CCC2)C1` [Compound I-30, (R)-4-(3-(3-(cyclobutylamino)pyrrolidine-1-carbonyl)-4-fluorobenzyl)phthalazin-1(2H)-one] gave an IC50 of 50 to 300 nM. Also, the exposure (AUC) in the data set “Mouse pharmacokinetics” was 521 ng·h/mL.
In the case of `O=C(c1cc(Cc2n[nH]c(=O)c3ccccc23)ccc1F)N1CC(NC2(C(F)(F)F)CC2)C1` [Compound I-80, 4-(4-fluoro-3-(3-((1-(trifluoromethyl)cyclopropyl)amino)azetidine-1-carbonyl)benzyl)phthalazin-1(2H)-one], the “% TGI” value in data set [4] (setting [5]) came to 75.9%; in data set [4] (setting [6]) it was 103.9%. For the same compound, the IC50 is 50 to 300 nM in data set [1], no more than 5 nM in data set [2] and 50 to 300 nM in data set [3]. Also, the exposure (AUC) in the data set “Mouse pharmacokinetics” was 2020 ng·h/mL.
For `Cl.O=C(c1cc(Cc2n[nH]c(=O)c3ccccc23)ccc1F)N1CC(NCC2CC2)C1` [Compound I-160, 4-(3-(3-((cyclopropylmethyl)amino)azetidine-1-carbonyl)-4-fluorobenzyl)phthalazin-1(2H)-one hydrochloride], the “% TGI” value in data set [4] (setting [5]) is on record as 55.8%; in data set [4] (setting [6]), 88.2%. Moreover, in the data set “Mouse pharmacokinetics”, the AUC was 2250 ng·h/mL.
Take `CC(C)CNCC1CN(C(=O)c2cc(Cc3n[nH]c(=O)c4ccccc34)ccc2F)C1` [Compound I-146, 4-(4-fluoro-3-(3-((isobutylamino)methyl)azetidine-1-carbonyl)benzyl)phthalazin-1(2H)-one]: the IC50 in data set [1] was 300 to 1000 nM; in data set [2], 5 to 50 nM; in data set [3] it was greater than 1000 nM. Besides, the exposure (AUC) in “Mouse pharmacokinetics” was 1090 ng·h/mL.
For the compound `O=C(c1cc(Cc2n[nH]c(=O)c3ccccc23)ccc1F)N1CC(CN2CCCCC2)C1` [Compound I-141, 4-(4-fluoro-3-(3-(piperidin-1-ylmethyl)azetidine-1-carbonyl)benzyl)phthalazin-1(2H)-one], the IC50 in data set [1] fell in the range of 300 to 1000 nM; in data set [2] it was 5 to 50 nM. This compound also gave an exposure (AUC) in the data set “Mouse pharmacokinetics” of 193 ng·h/mL.
As for `O=C(c1cc(Cc2n[nH]c(=O)c3ccccc23)ccc1F)N1CC[C@@H](Nc2ncccn2)C1` [Compound I-120, (R)-4-(4-fluoro-3-(3-(Pyrimidin-2-ylamino)pyrrolidine-1-carbonyl)benzyl)phthalazin-1(2H)-one], the half-maximal inhibitory concentration (IC50) in data set [2] was no more than 5 nM. In addition, in the data set “Mouse pharmacokinetics”, the exposure (AUC) is 510 ng·h/mL.
Take `O=C(c1cc(Cc2n[nH]c(=O)c3ccccc23)ccc1F)N1CC(CN2CCCC2)C1` [Compound I-140, 4-(4-fluoro-3-(3-(pyrrolidin-1-ylmethyl)azetidine-1-carbonyl)benzyl)phthalazin-1(2H)-one]: the IC50 was 300 to 1000 nM in data set [1] and no more than 5 nM in data set [2]. In addition, the exposure (AUC) in the data set “Mouse pharmacokinetics” was 295 ng·h/mL.
With `Cl.O=C(c1cc(Cc2n[nH]c(=O)c3ccccc23)ccc1F)N1CC(NC2CCCC2)C1` [Compound I-158, 4-(3-(3-(cyclopentylamino)azetidine-1-carbonyl)-4-fluorobenzyl)phthalazin-1(2H)-one hydrochloride], the entries for the “% TGI” value in data set [4] (setting [5]) and in data set [4] (setting [6]) were 44.9% and 80.9%, respectively.
Regarding `O=C(c1cc(Cc2n[nH]c(=O)c3ccccc23)ccc1F)N1CC(CN2CCC2)C1` [Compound I-142, 4-(3-(3-(azetidin-1-ylmethyl)azetidine-1-carbonyl)-4-fluorobenzyl)phthalazin-1(2H)-one], the half-inhibitory concentration (IC50) in data set [1] lay within 300 to 1000 nM; in data set [2], 5 to 50 nM. The same compound showed an AUC in “Mouse pharmacokinetics” of 88.8 ng·h/mL.
For `O=C(c1cc(Cc2n[nH]c(=O)c3ccccc23)ccc1F)N1CC(NC2CC2)C1` [Compound I-26, 4-(3-(3-(cyclopropylamino)azetidine-1-carbonyl)-4-fluorobenzyl)phthalazin-1(2H)-one], in that order: 300 to 1000 nM, 5 to 50 nM and 3350 ng·h/mL.
As for `C#CCNCC1CN(C(=O)c2cc(Cc3n[nH]c(=O)c4ccccc34)ccc2F)C1` [Compound I-149, 4-(4-fluoro-3-(3-((prop-2-yn-1-ylamino)methyl)azetidine-1-carbonyl)benzyl)phthalazin-1(2H)-one], the 50% inhibitory concentration (IC50) in data set [1] is 300 to 1000 nM; in data set [2], no more than 5 nM; in data set [3] it was greater than 1000 nM. The same compound gave an AUC in “Mouse pharmacokinetics” of 169 ng·h/mL.
`O=C(c1cc(Cc2n[nH]c(=O)c3ccccc23)ccc1F)N1CC[C@@H](N2CCC2)C1` [Compound I-135, (R)-4-(3-(3-(azetidin-1-yl)pyrrolidine-1-carbonyl)-4-fluorobenzyl)phthalazin-1(2H)-one] yielded an IC50 in data set [2] of 5 to 50 nM. This compound showed an AUC in the data set “Mouse pharmacokinetics” of 153 ng·h/mL.
In the case of `CCCCNC1CN(C(=O)c2cc(Cc3n[nH]c(=O)c4ccccc34)ccc2F)C1` [Compound I-53, 4-(3-(3-(butylamino)azetidine-1-carbonyl)-4-fluorobenzyl)phthalazin-1(2H)-one], the results for the half-inhibitory concentration (IC50) in data set [1], in data set [2] and in data set [3] were 300 to 1000 nM, no more than 5 nM and greater than 1000 nM, respectively. The compound further gave an exposure (AUC) in the data set “Mouse pharmacokinetics” of 1250 ng·h/mL.
Take `O=C(c1cc(Cc2n[nH]c(=O)c3ccccc23)ccc1F)N1CC(N2CCC2)C1` [Compound I-75, 4-(3-([1,3′-biazetidine]-1′-carbonyl)-4-fluorobenzyl)phthalazin-1(2H)-one]: the half-inhibitory concentration (IC50) in data set [2] lay in the range of 5 to 50 nM. In addition, the AUC in the data set “Mouse pharmacokinetics” is 475 ng·h/mL.
Take `CC(C)CNC1CN(C(=O)c2cc(Cc3n[nH]c(=O)c4ccccc34)ccc2F)C1` [Compound I-35, 4-(4-fluoro-3-(3-(isobutylamino)azetidine-1-carbonyl)benzyl)phthalazin-1(2H)-one]: the values for the IC50 in data set [1], in data set [2] and in data set [3] were 300 to 1000 nM, no more than 5 nM and greater than 1000 nM, respectively. Further, the AUC in the data set “Mouse pharmacokinetics” was 2250 ng·h/mL.
On to `CC(NC1CN(C(=O)c2cc(Cc3n[nH]c(=O)c4ccccc34)ccc2F)C1)C1CC1` (stereo not drawn) [Compound I-42, 4-(3-(3-((1-cyclopropylethyl)amino)azetidine-1-carbonyl)-4-fluorobenzyl)phthalazin-1(2H)-one], for which the 50% inhibitory concentration (IC50) is 300 to 1000 nM in data set [1] and no more than 5 nM in data set [2].
In the case of `O=C(c1cc(Cc2n[nH]c(=O)c3ccccc23)ccc1F)N1CC(CNC2CCC2)C1` [Compound I-148, 4-(3-(3-((cyclobutylamino)methyl)azetidine-1-carbonyl)-4-fluorobenzyl)phthalazin-1(2H)-one], the IC50 in data set [2] was no more than 5 nM. In the data set “Mouse pharmacokinetics”, this compound showed an AUC of 472 ng·h/mL.
Consider `COC[C@@H](C)NC1CN(C(=O)c2cc(Cc3n[nH]c(=O)c4ccccc34)ccc2F)C1` [Compound I-83, (R)-4-(4-fluoro-3-(3-((1-methoxypropan-2-yl)amino)azetidine-1-carbonyl)benzyl)phthalazin-1(2H)-one], for which the IC50 is 300 to 1000 nM in data set [1], 5 to 50 nM in data set [2] and greater than 1000 nM in data set [3]. The exposure (AUC) in “Mouse pharmacokinetics” was 567 ng·h/mL.

A word on the IC50: it is the midpoint of a concentration-inhibition curve. What is called AUC is the area under the concentration-time curve, a measure of exposure.
